From article PMC5563081, “Modulating Protein-Protein Interactions of the Mitotic Polo-like Kinases to Target Mutant KRAS” (Cell Chemical Biology, 2017)
Read-outs that look alike come from different tables or passages of the source. Non-standard residues stand in square brackets, D forms with d. No end group written: not given here. *: point of attachment. TAMRA = tetramethyl-6-carboxy-rhodamine, CN(C)c1ccc2c(-c3cc(C(=O)*)ccc3C(=O)[O-])c3ccc(N(C)C)cc3[o+]c2c1; pT = C[C@@H](OP(=O)(O)O)[C@H](N)C(=O)O

T1: PLK2-PBD(356-681), Polo-box domain of human Polo-like kinase 2 (human, UniProt Q9NYY3 356-681)
T1 construct: Polo-like kinase 2 (PLK2), human, Polo-box domain, residues 356-681; also called PLK2 PBD (aa356-681); PLK2 PDB; source: E. coli C41, purified (GST-Sepharose column, cleaved on column with PreScission protease, gel chromatography)
T1 sequence (looked up): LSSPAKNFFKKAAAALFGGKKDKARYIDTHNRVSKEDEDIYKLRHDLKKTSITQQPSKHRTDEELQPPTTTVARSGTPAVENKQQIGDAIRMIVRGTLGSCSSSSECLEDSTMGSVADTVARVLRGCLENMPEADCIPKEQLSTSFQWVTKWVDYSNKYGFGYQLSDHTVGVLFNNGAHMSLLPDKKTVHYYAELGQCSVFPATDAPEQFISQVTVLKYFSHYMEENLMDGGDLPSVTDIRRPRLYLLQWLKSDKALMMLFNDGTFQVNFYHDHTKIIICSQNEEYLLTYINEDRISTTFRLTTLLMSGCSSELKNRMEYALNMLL


Experiments:
[1] = tested on: murine pancreatic organoids KRAS MUT p53 MUT; test: Viability of pancreatic organoids (CellTitre Glo 3D), KRAS G12D; format: cell-based; settings: Mus musculus; organoids KRAS MUT p53 MUT #2, Crizotinib plus DMSO, n=2; read-out: Mean GI50
Method: (§1) Organoid cultures were prepared from the pancreas of LSL-Trp53^R172H/+, Pdx-1-Cre (for Kras WT organoids) or LSL-Trp53^R172H/+, LSL-Kras^G12D/+, Pdx-1-Cre (for Kras^G12D organoids KPC3760 and KPC26684) strains ([Hingorani et al., 2005]). Pancreatic ducts were manually picked after tissue mincing and overnight enzymatic digestion with 0.012% (w/v) collagenase XI (Sigma) and 0.012% (w/v) dispase (GIBCO) in DMEM media containing 1% FBS (GIBCO), before seeding in growth-factor-reduced (GFR) Matrigel (BD) ([Boj et al., 2015]).
(§2) Pancreatic organoids were extracted and cultured as detailed above ([Boj et al., 2015]). In brief, pancreatic organoids were seeded at 600 cells per well in a 96 well plate and allowed to grow for 7 days with media replenishment on the 3rd day. Full-grown organoids were then treated with compounds for 72h and viability determined using CellTitre Glo 3D assay (Promega). For viability assays with c-MET siRNA, cells were reverse transfected in a 6 cm dish using Dharmafect 1 (GE Dharmacon) per manufacturer’s instructions. On the following day, cells were trypsinised and plated onto 96 well plates or 6 well plates. The 96 well plates were treated with a dose range of compounds or DMSO, and viability was determined via SRB colorimetric assay. Cells in the 6 well plates were collected at the end of experiment to corroborate knockdown of c-MET by Western blotting.

[2] = tested on: HT29; test: Cell viability, HT29; format: cell-based; settings: Homo sapiens, HT-29, read-out: Crizotinib GI50
[3] = tested on: Panc 02.03; test: Cell viability (SRB), Panc 02.03; format: cell-based; settings: Homo sapiens, Panc 02.03; read-out: Crizotinib GI50
Method: (§3) SW48 Parental, SW48 G12D, Panc-1, HPAF-II, Panc 02.03 and Panc 05.04 cell lines were seeded overnight at 5000 cells per well in a 96 well plate in recommended media (ATCC). Compounds were added the following day and viability was measured at 72h using the sulforhodamine B (SRB) colorimetric assay as follows. Cells were fixed by replacing media with 1% v/v Trichloroacetic Acid (TCA) (Sigma-Aldrich) at 4°C and incubated for 1h also at 4°C. Wells were washed thoroughly with copious amounts of deionised water before staining with Sulforhodamine B (SRB) (Sigma-Aldrich) solution (0.057% w/v in 1% v/v Acetic Acid (VWR)) for 30 min. Stain was aspirated and wells washed with several changes of 1% v/v Acetic Acid until unbound stain was removed, before air-drying. Bound stain was solubilized with 100μl / well 10mM Tris (pH 8.0) (Trizma Base (121.1) Sigma-Aldrich) with agitation for 10 min. Fluorescence intensity was recorded at Ex540nm / Em590nm using a BMG Pherastar Plus plate reader ([Vichai and Kirtikara, 2006]).
as §2, with “Cells in the 6 well plates were collected at the end of experiment to corroborate knockdown of c-MET by Western blotting.” left out
(§4) Cells were reverse-transfected with 50nM (SW48 parental, SW48 KRAS G12D and Panc-1) or 25nM (HeLa Flp-In T-REx parental cells) siRNA using Dharmafect (GE Dharmacon) as manufacturer’s recommendations. […] Viability was assessed after 72 hrs, with the SRB colorimetric assay. Knockdown efficiencies were determined by Western blot or RT-qPCR. […]

[4] = tested on: SW48 parental (KRAS WT) cells; test: Cell viability (SRB), SW48 parental; format: cell-based; settings: Homo sapiens; SW48 KRAS WT, Crizotinib with DMSO, SRB 72 hr; read-out: GI50
Method: as §3

[5] = tested on: SW48 KRAS G12D cells; test: Cell viability (SRB), SW48 KRAS G12D; format: cell-based; settings: Homo sapiens; SW48 KRAS G12D, Crizotinib with DMSO, SRB 72 hr; read-out: GI50
Method: as §3

[6] = tested on: DLD-1; test: Cell viability, DLD-1; format: cell-based; settings: Homo sapiens, read-out: Crizotinib GI50
[7] = tested on: SW116; test: Cell viability, SW1116; format: cell-based; settings: Homo sapiens, read-out: Crizotinib GI50
[8] = tested on: Panc 05.04; test: Cell viability (SRB), Panc 05.04; format: cell-based; settings: Homo sapiens, Panc 05.04; Panc 04.05; read-out: Crizotinib GI50
Method: as §3
as §2, with “Cells in the 6 well plates were collected at the end of experiment to corroborate knockdown of c-MET by Western blotting.” left out
as §4

[9] = tested on: murine pancreatic organoids KRAS WT p53 MUT; test: Viability of pancreatic organoids (CellTitre Glo 3D), KRAS WT; format: cell-based; settings: Mus musculus; organoids KRAS WT p53 MUT, Crizotinib plus DMSO, n=2; read-out: Mean GI50
Method: as §1, §2

[10] = tested on: Panc-1; test: Cell viability (SRB), Panc-1; format: cell-based, human; settings: Homo sapiens
Method: as §3, §2
Cells were reverse-transfected with 50nM (SW48 parental, SW48 KRAS G12D and Panc-1) or 25nM (HeLa Flp-In T-REx parental cells) siRNA using Dharmafect (GE Dharmacon) as manufacturer’s recommendations. Where transfected cells were subsequently treated with compounds, the cells were allowed to settle overnight and then treated with compound at the indicated concentration the following day. Viability was assessed after 72 hrs, with the SRB colorimetric assay. Knockdown efficiencies were determined by Western blot or RT-qPCR. Oligos against the following target sequences were used. c-MET (Qiagen): […], […], […]. PLK1 (Qiagen): […]. PLK2 (SMARTpool; Dharmacon): ACACAGAAGGAGAACGAUA, CAUCAAUGAGGAUAGGAUA, CUGCCUAGUGUUACUGAUA, ACAAAGUCUACGCCGCAAA. PLK3 (SMARTpool; Dharmacon): GCGAGAAGAUCCUAAAUGA, GCAAGUGGGUUGACUACUC, GCACAUCCGUUGGCCAUCA, GACCUCAAGUUGGGAAAUU. PLK4 (Qiagen): […].

[11] = molecular target: T1, PLK2-PBD(356-681), Polo-box domain of …; test: fluorescence polarisation; competition format: TAMRA-labelled phosphopeptide 10 nM, PBD 84 nM (2.5 ng/ul), PBS pH 7.4 plus 0.03% tween; compound and PBD incubated together at 22 C for 1 hour before the peptide was added; same procedure for PLK2 PBD with its own peptide; settings: both partners purified

GI50 [2] [nM] | GI50 [3] [nM] | GI50 [5] [nM] | GI50 [6] [nM] | GI50 [7] [nM] | GI50 [8] [nM] | GI50 ([10]; PANC-1, 72 h, Panc-1, individual compound, 72 hr, Figure 7F/7G, read-out: Abs GI50) [nM] | GI50 ([10]; PANC-1, Panc-1, read-out: Crizotinib GI50) [nM] | binding result [11] | Molecule | GI50 [1] [nM] | GI50 [4] [nM] | GI50 [9] [nM] | EC50 ([10]; Panc-1, c-MET inhibitor alone, SRB 72 h, Figure S5C, read-out: EC50, % survival) [nM]
3850 | 960 | 630 ± 10 | 1620 | 4730 | 91 | 2500 | 7240 |  | C[C@@H](Oc1cc(-c2cnn(C3CCNCC3)c2)cnc1N)c1c(Cl)ccc(F)c1Cl [Crizotinib, reference compound] | 6800 | 560 ± 20 | 17600 | 3500 ± 1040
 |  |  |  |  |  |  |  | binds | {TAMRA}-MAGPMQTS[pT]PKNGAKK (the second T of 'TST' is phosphothreonine; also called phosphopeptide substrate; source: bought: Designer Bioscience) [TAMRA-MAGPMQTS(pThreonine)PKNGAKK, consensus binding phosphopeptide used with the PLK2 PBD] |  |  |  | 
